Assays:
[1] = Microsome (oxidative metabolism) stability, human; format: in vitro ADME; settings: for half-life at 1 µM: liver microsomes 0.5 mg/mL, NADPH, read-out: T1/2 Human; for microsomal CLint at 1 µM: liver microsomes, read-out: CL Human
Procedure: Microsome stability assays were performed by Bioduro, LLC. Briefly, 2.5 µL (100 µM in DMSO) of test compounds are added to 197.5 µL of human, rat, or mouse microsome preparation (0.633 mg/mL in phosphate buffer) and mixed gently at 37 °C. The reaction is started by adding 50 µL NADPH (5 mM in phosphate buffer) and mixing at 37 °C. The final reaction microsome concentration is 0.5 mg/mL. The reaction is sampled at 0, 5, 15, 30, and 60 min. Reaction aliquots are quenched by adding to 1:1 methanol–acetonitrile containing analytical standards and analyzed by liquid chromatography with tandem mass spectrometry (LC-MS/MS).

[2] = tested on: SK-N-AS flank tumors; assay: SK-N-AS flank tumor growth in athymic nude mice; format: in vivo, mouse; settings: 50 mg/kg bid po; for Percent necrosis in SK-N-AS tumors: H&E, blinded pathologist, vehicle 8.3 ± 3.3%; for tumor volume: SK-N-AS flank tumors, after 9 days, vehicle 2104 ± 53
Procedure: (§1) SK-N-AS (1.8 × 10^6) or SK-N-BE(2) (1.5 × 10^6) cells in 25% Matrigel™ (BD Biosciences) were injected into the right flank of 6-week-old female athymic nude mice (Fredricks, Charles River, Wilmington, MA, USA) (n = 5 for SK-N-AS vehicle treated, n = 7 for SK-N-AS 792 or 1154 treatment and all SK-N-BE(2) experimental groups). Calipers were used to measure tumors three times per week, and volumes were calculated by the formula (width^2 × length)/2, where width was the smaller measurement. After tumors reached a volume of 100 mm^3, animals were randomized to three groups to receive 100 µL of either vehicle (N,N-dimethylacetamide (DMA, 271012, Sigma Aldrich) and Kolliphor® HS 15 (Solutol, 42996, Sigma Aldrich)), 792 (50 mg/kg in DMA and Solutol), or 1154 (50 mg/kg in DMA and Solutol) twice daily by oral gavage; dosing based on previously published in vivo cancer models. Animals were weighed weekly and were humanely euthanized in their home cages with CO2 and cervical dislocation when control tumors reached 2000 mm^3; either 9 (SK-N-AS tumors) or 19 days (SK-N-BE(2) tumors) following treatment initiation, or when IACUC parameters were met. Power analysis was completed prior to the study.

[3] = tested on: MYCN; assay: Immunoblotting of MYCN in neuroblastoma cells; format: cell-based, human; settings: 24 h
Procedure: Following treatment, cells were lysed on ice using radioimmunoprecipitation (RIPA) buffer with phosphatase inhibitors (P5726, Sigma Aldrich), protease inhibitors (P8340, Sigma Aldrich), and phenylmethanesulfonylfluoride (PMSF, P7626, Sigma Aldrich) for 60 min. Cell lysates were centrifuged at 17,000 rpm for 30 min at 4 °C. Pierce™ BCA Protein Assay (Thermo Fisher Scientific, Inc.) determined protein concentration and proteins were separated by electrophoresis on sodium dodecyl sulfate polyacrylamide (SDS-PAGE) gels. Expected size of the targeted proteins was confirmed using molecular weight markers (Precision Plus Protein Kaleidoscope, Bio-Rad, Hercules, CA, USA). […] Immunoblots were developed with Luminata Classico or Crescendo Western horseradish peroxidase substrate (EMD Millipore, Burlington, MA, USA). Either anti-vinculin or anti-β-actin (as available from manufacturer) served as an internal loading control. We performed densitometry of Western blots using ImageJ software (Ver 1.49, http://imagej.nih.gov/ij (accessed on 9 February 2022).

[4] = tested on: SK-N-BE(2) flank tumors; assay: SK-N-BE(2) flank tumor growth in athymic nude mice; format: in vivo, mouse; settings: 50 mg/kg bid po
Procedure: as §1

[5] = tested on: SH-EP cells; assay: Annexin V/PI apoptosis flow cytometry, SH-EP; format: cell-based, human; settings: 10 µM, 24 h
Procedure: Apoptosis was evaluated using the FITC Annexin V Apoptosis Detection Kit (BD Biosciences) according to manufacturer’s protocol. SH-EP cells (5 × 10^5) were treated with either 792 or 1154 (10 µM) for 24 h. Cells were trypsinized, washed with PBS, centrifuged, and re-suspended in 100 μL of 1× binding buffer (0.1 M HEPES/NaOH, 1.4 M NaCl, 25 mM CaCl2, pH 7.4). Annexin V-FITC staining solutions were added, and cells were incubated for 15 min at room temperature (20–25 °C) in the dark. Cells were washed in 1 mL of 1× binding buffer, centrifuged, and re-suspended in 500 μL of 1× binding buffer. PI was added, and cells sat on ice for 1 h prior to flow cytometry. Unstained cells and cells stained with either PI or Annexin V alone were utilized for negative controls and compensation. The percent of Annexin V and/or PI positive cells was determined via flow cytometry using the Attune NxT Flow Cytometer (Invitrogen). Data are represented as percent cell population with Annexin V + PI− stained cells representing early apoptotic cells, Annexin V + PI + cells representing late apoptotic cells, cells not stained with Annexin V or PI representing live cells, and cells stained with PI only representing necrotic or dead cells. FlowJo software (FlowJo, LLC) was used for data analysis. Data reported as mean ± SEM.
Supplemental Figure S6: 792 and 1154 treatment and apoptosis. Cells were serum starved and treated with 792 or 1154 to evaluate the cell cycle as previously described (Figure 4).
(A) The percent of cells in the subG1 (<G1) is reported in tabular form. There was no sig-nificant increase in the subG1 population in any of the cell lines except for SH-EP cells […]
subG1 population, further investigation of apoptosis was performed. Cells were treated with 792 or 1154 (0, 10 µM) for 24 hours and were assessed by flow cytometry of Annexin V/PI dual staining, and FlowJo was used for analysis. […]
significant increase (B) in early apoptosis (Annexin V + PI - cells, quadrant Q3) (C) whereas […]
mechanism behind the effect of these drugs on viability. […]

[6] = tested on: SH-EP cells; assay: Cell cycle analysis by flow cytometry (PI), SH-EP; format: cell-based, human; settings: 24 h; for Mean % G1 (± SEM) / Mean % G2 (± SEM) / Mean % S (± SEM) / percentage of cells in the S phase / percentage of cells in G1: SH-EP, 15 μM; for percentage of cells in the S phase: untreated 30.9 ± 2.1; for percentage of cells in G1: untreated 42.6 ± 2.4
Procedure: To evaluate cell cycle, cells (1 × 10^6) were plated and maintained in respective media with reduced FBS (4%) for cell synchronization. […] Cells were washed with phosphate-buffered saline (PBS) and fixed at 4 °C for 30 min with 100% ethanol. Following a second PBS wash, cells were stained with propidium iodide (PI, Invitrogen, Waltham, MA, USA), RNAse A (0.1 mg/mL, Qiagen, Germantown, MD, USA), and 0.1% TritonX (Active Motif, Carlsbad, CA, USA), and FACSCalibur^TM Flow Cytometer (BD Biosciences, Franklin Lakes, NJ, USA) was used for examination. FlowJo software (FlowJo, LLC, Ashland, OR, USA) was used for data analysis. Data reported as mean percentage cells in phase ± SEM.

[7] = SK-N-AS cells, increasing doses
[8] = SK-N-BE(2), SH-EP and WAC2 cells, 0, 10, 20 μM

O=S(=O)(N[C@H]1COC[C@@H](n2c3ccc(Cl)cc3c3cc(Cl)ccc32)[C@@H]1O)c1ccc(OC(F)(F)F)cc1 [ATUX-792]
half-life at 1 µM [1]: > 256 min
microsomal CLint at 1 µM [1]: < 5 µL/min/mg
Percent necrosis in SK-N-AS tumors [2]: 33.3 ± 8.8%
tumor volume [2]: 1309 ± 169 mm^3
ganglion cells in tumors (tumor cell differentiation) ([2]; SK-N-AS tumors, H&E staining): ganglion cells present
MYCN protein expression [3, 7]: increase in MYCN expression
MYCN protein expression [3, 8]: decreased expression of MYCN
tumor volume ([4]; after 17 days, vehicle 2362 ± 53): 1383 ± 243 mm^3
early apoptosis (Annexin V/PI) [5]: significant increase in early apoptosis
late apoptosis (Annexin V/PI) [5]: increased cells in late apoptosis
percent of cells in subG1 ([6]; SH-EP cells): significant increase in the percent of cells in subG1
Mean % G1 (± SEM) [6]: 58.4 (± 2.3) %
Mean % G2 (± SEM) [6]: 12.1 (± 2.6) %
Mean % S (± SEM) [6]: 21.0 (± 1.4) %
percentage of cells in the S phase [6]: 21 ± 1.4%
percentage of cells in G1 [6]: 58.4 ± 2.3%

O=S(=O)(NC1CCCC(N2c3ccccc3CCc3ccccc32)C1O)c1ccc(OC(F)(F)F)cc1 (centres unmarked) [DBK-1154]
half-life at 1 µM [1]: 10 min
microsomal CLint at 1 µM [1]: 134 µL/min/mg
Percent necrosis in SK-N-AS tumors [2]: 23.3 ± 6.7%
tumor volume [2]: 2124 ± 275 mm^3
MYCN protein expression [3, 7]: increase in MYCN expression
MYCN protein expression [3, 8]: decreased expression of MYCN
tumor volume ([4]; by day 19, vehicle 2362 ± 53): 1628 ± 362 mm^3
late apoptosis (Annexin V/PI) [5]: increased cells in late apoptosis
Mean % G1 (± SEM) [6]: 52.0 (± 2.2) %
Mean % G2 (± SEM) [6]: 14.6 (± 4.9) %
Mean % S (± SEM) [6]: 26.3 (± 2.0) %
percentage of cells in the S phase [6]: 26.3 ± 2%
percentage of cells in G1 [6]: 52 ± 2.2%

Reference: paper PMC9026148, “Pre-Clinical Study Evaluating Novel Protein Phosphatase 2A Activators as Therapeutics for Neuroblastoma” (Cancers, 2022)
